Test results from ChEMBL document CHEMBL3792301, “Isatin derivatives with activity against apoptosis-resistant cancer cells” (Bioorg Med Chem Lett, 2016).

How the values were obtained:
SK-MEL-28 = test: Antiproliferative activity against apoptosis resistant human SK-MEL-28 cells after 72 hrs by MTT assay; assay type: functional, cell-based; conditions: SK-MEL-28, 72 h
[1] = Antiproliferative activity against apoptosis sensitive human Hs683 cells after 72 hrs by MTT assay; assay type: functional, cell-based; conditions: Hs 683, 72 h
[2] = Antiproliferative activity against apoptosis resistant human U373 cells after 72 hrs by MTT assay; assay type: functional, cell-based, U-373MG ATCC; conditions: U373 MG
A549 = test: Antiproliferative activity against apoptosis resistant human A549 cells after 72 hrs by MTT assay; assay type: functional, cell-based; conditions: A549, 72 h
[3] = Antiproliferative activity against apoptosis sensitive mouse B16F10 cells after 72 hrs by MTT assay; assay type: functional, cell-based; conditions: B16-F10, 72 h
LoVo = test: Antiproliferative activity against human LoVo cells after 72 hrs by MTT assay; assay type: functional, cell-based
[4] = Antiproliferative activity against apoptosis resistant human OE21 cells after 72 hrs by MTT assay; assay type: functional, cell-based; conditions: OE21, 72 h
MCF7 = test: Antiproliferative activity against apoptosis sensitive human MCF7 cells after 72 hrs by MTT assay; assay type: functional, cell-based; conditions: MCF7, 72 h
[5] = Antiproliferative activity against apoptosis sensitive human PC3 cells after 72 hrs by MTT assay; assay type: functional, cell-based; conditions: PC-3, 72 h

SMILES | IC50 (SK-MEL-28) | IC50 (A549) | IC50 (LoVo) | IC50 (MCF7) | IC50 [1] | IC50 [2] | IC50 [3] | IC50 [4] | IC50 [5]
O=C1NC(=S)S/C1=C1\C(=O)Nc2ccccc21 | 96.6 µM | 99 µM | 69.3 µM | > 100 µM | 93.3 µM | 85.3 µM | 73.5 µM | 47.2 µM | > 100 µM
O=C1NC(=O)/C(=C2/C(=O)Nc3ccccc32)S1 | > 100 µM | 60.7 µM | 5.2 µM | > 100 µM | 89.7 µM | 86.4 µM | 2.8 µM | 38 µM | 67.5 µM
O=C1Nc2ccc(Br)cc2/C1=C1/Nc2ccccc2C1=O | > 100 µM | > 100 µM | 12 µM | 37.3 µM | 14.1 µM | 8.6 µM | 3.8 µM | 3.8 µM | > 100 µM
O=C1Nc2c(F)cccc2/C1=C1/Nc2ccccc2C1=O | > 100 µM | > 100 µM | 42 µM | 44.8 µM | 38.7 µM | 45.8 µM | 16.3 µM | 29 µM | > 100 µM
O=C1NC(=O)/C(=C2/C(=O)Nc3ccccc32)N1 | > 100 µM | 66.5 µM | 76.1 µM | 94.6 µM | 84.7 µM | > 100 µM | 73.3 µM | 52.3 µM | 95.5 µM
O=C1NC(=S)N/C1=C1\C(=O)Nc2c(Br)cccc21 | 11.7 µM | 3.8 µM | 37 µM | 51 µM | 40.8 µM | 4.7 µM | 5 µM | 20.2 µM | 22.8 µM
O=C1Nc2ccccc2/C1=C1/Cc2ccccc2C1=O | > 100 µM | > 100 µM | 52.6 µM | 70.2 µM | > 100 µM | > 100 µM | > 100 µM | 25.1 µM | > 100 µM
O=C1Nc2ccc(Br)cc2/C1=C1/Cc2ccccc2C1=O | > 100 µM | > 100 µM | 52.8 µM | 65.2 µM | 47.3 µM | 41.4 µM | 69.1 µM | 56 µM | > 100 µM
O=C1NC(=S)S/C1=C1\C(=O)Nc2ccc(Br)cc21 | 53.5 µM | 36.2 µM | 52.1 µM | 82.9 µM | 93.6 µM | 41.7 µM | 0.1 µM | 62.5 µM | 44.3 µM
O=C1Nc2ccccc2/C1=C1/Cc2ccccc2/C1=N\O | 33.7 µM | 28.7 µM | 18.7 µM | 38.5 µM | 22.9 µM | 28 µM | 32.6 µM | 27.8 µM | 33.1 µM
O=C1NC(=S)N/C1=C1\C(=O)Nc2ccccc21 | 62.9 µM | 45.8 µM | 60.2 µM | 87.8 µM | 52.9 µM | 51.9 µM | 41.6 µM | 38.7 µM | 75.5 µM
O=C1Nc2ccccc2/C1=C1/Oc2ccccc2C1=O | 23.8 µM | 23.3 µM | 4.1 µM | 0.3 µM | 25.7 µM | 27.7 µM | < 0.01 µM | 25.9 µM | 36.1 µM
O=C1Nc2ccccc2/C1=C1/Nc2ccccc2C1=O [INDIRUBIN] | > 100 µM | > 100 µM | > 100 µM | > 100 µM | > 100 µM | > 100 µM | 0.2 µM | 30.5 µM | > 100 µM
CC1(C)CCC2=C(O1)c1ccccc1C(=O)C2=O [LAPACHONE] | 0.6 µM | 0.8 µM | 0.3 µM | 0.5 µM | 0.4 µM | 0.4 µM | 0.3 µM | 0.6 µM | < 0.01 µM

More lines, main results first:

IC50 (SK-MEL-28) | IC50 (A549) | IC50 (LoVo) | IC50 (MCF7) | SMILES | IC50 [1] | IC50 [2] | IC50 [3] | IC50 [4] | IC50 [5]
9.8 µM | 13.9 µM | 5.6 µM | 4.9 µM | O=C1Nc2c(Br)cccc2/C1=C1/Nc2ccccc2/C1=N\O | 8.1 µM | 6.6 µM | 5.3 µM | 3.9 µM | 7.8 µM
26.6 µM | 27 µM | 8.9 µM | 9.2 µM | O=C1Nc2ccccc2/C1=C1/Nc2ccccc2/C1=N\O | 6 µM | 18 µM | 5.4 µM | 8.1 µM | 24.3 µM
> 100 µM | > 100 µM | > 100 µM | > 100 µM | O=C1Nc2c(Cl)cccc2/C1=C1/Nc2ccccc2C1=O | 55.2 µM | > 100 µM | 15.7 µM | 35.3 µM | > 100 µM
40.1 µM | 45.2 µM | 10.2 µM | 27.5 µM | O=C1Nc2c(Cl)cccc2/C1=C1/Nc2ccccc2/C1=N\O | 25.3 µM | 31.5 µM | 12.9 µM | 19.6 µM | 29.7 µM
44.6 µM | 33.3 µM | 9 µM | 26.2 µM | O=C1Nc2c(F)cccc2/C1=C1/Nc2ccccc2/C1=N\O | 9.3 µM | 19.7 µM | 7.8 µM | 9.2 µM | 26 µM
> 100 µM | > 100 µM | 32.3 µM | 52.8 µM | O=C1Nc2c(Br)cccc2/C1=C1/Nc2ccccc2C1=O | 6.9 µM | 8.1 µM | 3.2 µM | 8.7 µM | > 100 µM
17.3 µM | 7.2 µM | 6.6 µM | 5.8 µM | O=C1Nc2ccc(Br)cc2/C1=C1/Nc2ccccc2/C1=N\O [INDIRUBIN 2] | 8.4 µM | 8 µM | 0.5 µM | 3.6 µM | 6.8 µM
